Values quoted from earlier work, collected in patent publication US7838691B2, “Palmerolides: methods of preparation and derivatives thereof” (Board of Regents, of the University of Texas System, priority 2007, dated 2010).

Legend:
[1] = target: bovine brain V-ATPase; conditions: in vitro
[2] = tested on: several cancer cell lines including melanoma, colon cancer, and renal cancer

**Q.** For `CC(C)=CC(=O)N/C=C/C(C)=C/[C@@H](C)[C@H]1C/C(C)=C/C=C/CC[C@H](OC(N)=O)[C@@H](O)/C=C/[C@@H](O)CCC/C=C/C(=O)O1` [Palmerolide A], which IC50 [1] is on record?
**A.** ~2 nM

**Q.** And the cytotoxicity [2]?
**A.** selective cytotoxin
